From PubChem BioAssay AID1645866 (Buhrlage Lab, Dana-Farber Cancer Institute and Novartis …, 2021)
Activity calls are given as the source filed them.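 How the source made its calls: active means in confirmatory dose-response testing, peak deubiquitinase inhibition of 30% or more; inactive means the rest.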

Target: Ubiquitin carboxyl-terminal hydrolase 28 (Homo sapiens) (UniProt Q96RU2)
Assay: Ubiquitin-specific peptidase 28 DUB inhibitors, biochemical concentration-dependence assay, validation of primary screening hits (AID 1645866)
Conditions: purified USP28, ubiquitin-rhodamine fluorescence, 30 min

Sequence of Ubiquitin carboxyl-terminal hydrolase 28 (Homo sapiens) (Q96RU2 whole entry, looked up): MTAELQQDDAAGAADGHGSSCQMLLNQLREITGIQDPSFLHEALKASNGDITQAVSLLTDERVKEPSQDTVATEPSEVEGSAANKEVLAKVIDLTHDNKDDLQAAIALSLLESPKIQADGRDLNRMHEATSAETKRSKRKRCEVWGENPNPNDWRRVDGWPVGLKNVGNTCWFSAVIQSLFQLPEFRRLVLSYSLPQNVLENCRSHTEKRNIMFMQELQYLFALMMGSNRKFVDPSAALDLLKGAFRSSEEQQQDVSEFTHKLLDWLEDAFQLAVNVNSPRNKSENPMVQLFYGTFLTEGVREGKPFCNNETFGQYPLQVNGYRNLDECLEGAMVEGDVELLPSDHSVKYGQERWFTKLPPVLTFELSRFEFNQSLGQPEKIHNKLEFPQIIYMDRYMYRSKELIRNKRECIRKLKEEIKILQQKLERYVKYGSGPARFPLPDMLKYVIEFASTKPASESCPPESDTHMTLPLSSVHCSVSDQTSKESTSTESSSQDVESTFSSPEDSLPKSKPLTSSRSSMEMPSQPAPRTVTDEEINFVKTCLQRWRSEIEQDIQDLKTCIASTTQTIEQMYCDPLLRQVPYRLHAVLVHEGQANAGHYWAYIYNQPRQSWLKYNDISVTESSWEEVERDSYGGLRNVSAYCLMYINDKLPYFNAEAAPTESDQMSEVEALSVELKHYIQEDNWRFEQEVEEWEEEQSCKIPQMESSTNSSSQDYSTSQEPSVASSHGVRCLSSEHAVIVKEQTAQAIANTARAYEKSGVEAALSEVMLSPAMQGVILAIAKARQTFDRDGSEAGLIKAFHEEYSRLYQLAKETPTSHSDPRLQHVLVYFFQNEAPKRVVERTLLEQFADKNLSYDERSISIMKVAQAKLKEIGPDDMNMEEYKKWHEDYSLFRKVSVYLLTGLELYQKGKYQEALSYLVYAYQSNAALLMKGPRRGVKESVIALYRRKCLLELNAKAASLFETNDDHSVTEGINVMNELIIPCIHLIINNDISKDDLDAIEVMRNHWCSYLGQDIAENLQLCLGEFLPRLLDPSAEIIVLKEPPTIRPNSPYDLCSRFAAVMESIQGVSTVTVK

Row | SMILES | IC50
1 | O=C1c2ccccc2NC2(C(=O)Nc3ccc(Br)cc32)N1c1ccccc1 (centres undefined) | 3.31 µM
2 | COc1ccccc1-n1nnc(C(=O)Nc2ccc(Oc3ccccc3)cc2)c1C | 6.16 µM
3 | Cc1c(-c2nnc(-c3ccccn3)o2)nnn1-c1cccc(Cl)c1 | 25.6 µM
4 | O=C(Nc1ccc2ccccc2n1)c1ccc(Cl)cc1 | 6.26 µM
5 | O=C(COc1cccc(C(=O)NCc2ccccc2)c1)Nc1ccc(Oc2ccccc2)cc1 | 27.9 µM
6 | COc1ccc(CCNC(=O)COc2ncnc3oc(C)c(C)c23)cc1OC | > 50 µM (inactive)
7 | Clc1ccc(C[n+]2cc(-c3ccc(Cl)cc3)n3c2CCC3)cc1 | 13.6 µM
8 | COc1cccc(-c2cc(=O)[nH]c(Nc3nc(C)c4ccccc4n3)n2)c1 | 25.9 µM
9 | Cc1ccc(OCCn2c(=N)n(C(C)C)c3ccccc32)cc1 | 2.13 µM
10 | COc1ccc(C2CC(c3ccccc3)N(C(=O)C3CC3)c3ncnn32)cc1 (centres undefined) | > 50 µM (inactive)
11 | CC(C)Cn1cc(OC(=O)c2ccc(F)cc2)c2c1nc(-c1ccc(F)cc1)n1c3ccccc3nc21 | > 50 µM (inactive)
12 | Cc1cc(C)c2sc(N(CCCn3ccnc3)C(=O)Cc3ccccc3)nc2c1 | 17.2 µM
13 | Cc1nn(Cc2ccccc2)c(Cl)c1C(=O)NC1CCCc2ccccc21 (centres undefined) | > 50 µM (inactive)
14 | COc1cccc(NC(=O)c2ccc(F)cc2Cl)c1 | 18.7 µM
15 | CCn1cnc2c(-c3ccccc3)cn(CC(=O)NCc3ccc4c(c3)OCO4)c2c1=O | 10.4 µM
16 | CCCC(=O)Nc1ccc(SCc2nnc(-c3ccccc3)o2)cc1 | 12.7 µM
17 | CCc1ccc(C2c3c(oc4ccccc4c3=O)C(=O)N2c2nncs2)cc1 (centres undefined) | > 50 µM (inactive)
18 | COc1ccc(Cl)cc1NC(=O)c1cc(-c2ccccn2)n[nH]1 | 0.547 µM
19 | O=C(Nc1cccc(Cl)c1)N1CCC(c2cc(-c3ccco3)n[nH]2)CC1 | 4.68 µM
20 | COc1ccc(COC(=O)C2=C(C)NC(=O)CC2c2cccc([N+](=O)[O-])c2)cc1 (centres undefined) | 3.06 µM
21 | N#C/C(=C\c1ccc(-c2cc(Cl)ccc2Cl)o1)c1nnc2n1CCCCC2 | > 50 µM (inactive)
22 | COC(=O)c1cc(C)sc1NC(=O)c1cccc(OC)c1OC | > 50 µM (inactive)
23 | CCCCNC(=O)c1cc2cccnc2n(Cc2ccccc2)c1=O | > 50 µM (inactive)
24 | C[C@@H]1OC2=C(C(=O)c3cccc(O)c3C2=O)[C@H](O)[C@@H]1O | 2.79 µM
25 | Oc1sc(C=Nc2cc(Cl)ccc2Cl)c2ccccc12 | 2.98 µM
26 | COc1ccc2c(C)c(CC(=O)N3CCC[C@H]3C(=O)O)c(=O)oc2c1C | 44.6 µM

Row | SMILES | IC50
27 | Nc1ncnc(SCc2ccc(Cl)cc2)n1 | 19.7 µM
28 | Cc1nc(-c2cccc(NC(=O)c3ccccc3Cl)c2)no1 | 16.6 µM
29 | Cc1cc(Cl)ccc1NC(=O)c1cc(-c2cccnc2)n[nH]1 | > 50 µM (inactive)
30 | O=C1C/C(=C\c2cccc(Cl)c2)Cc2ccccc21 | 13 µM
31 | O=C(Cn1c(=O)n(CC(=O)NC2CCCC2)c(=O)c2ccccc21)Nc1cc(Cl)ccc1Cl | 4.52 µM
32 | COc1ccc(OC)c(NC(=O)CSc2nc(C)nc3c2oc2ccccc23)c1 | 8.65 µM
33 | Cc1nc(-c2ccc3c(c2)nnn3CCN2CCOCC2)no1 | > 50 µM (inactive)
34 | O=C(CSc1ccc2nnc(-c3ccccc3)n2n1)N1CCCc2ccccc21 | 9.31 µM
35 | CCOC(=O)c1ccc(NC(=O)Cn2c(=O)n(CC(=O)NCc3ccco3)c(=O)c3ccccc32)cc1 | 2.31 µM
36 | O=C(CN1C(=O)COc2ccc(Cl)cc21)Nc1cccc2ncccc12 | > 50 µM (inactive)
37 | COc1ccc(NC(=O)CN2C(=O)c3ccccc3Sc3ccc(C(=O)N4CCCC4)cc32)c(OC)c1 | 18.9 µM
38 | CC1=CN2C(=N)/C(=C/c3cn(Cc4ccc(Cl)cc4)c4ccccc34)C(=O)N=C2S1 | > 50 µM (inactive)
39 | Cc1cc(O)c2c3c(c(O)c4c(c13)O[C@@H](C)C4(C)C)C(=O)C2=O | 23.5 µM
40 | COc1ccc(Cl)cc1NC(=O)Cn1c(=O)cc(C)c2c(C)nn(-c3ccccc3)c21 | 5.44 µM
41 | Nc1c(C(=O)NCc2ccc3c(c2)OCO3)nnn1Cc1ccc(Br)cc1F | 5.37 µM
42 | CC1(C)OC2=C(C(=O)c3cc(O)cc(O)c3C2=O)c2cc(CO)c(O)cc21 | 18.5 µM
43 | Cc1nc(Nc2ncc(C)s2)cc(C2CN(C(=O)Cc3ccccc3)CCO2)n1 (centres undefined) | 43.8 µM
44 | COc1cc(NC(=O)COC(=O)Cn2cnc3ccccc32)cc(OC)c1 | 40 µM
45 | O=C(Nc1ccc2c(c1)OCCO2)C1CCC(Cn2cnc3ccccc3c2=O)CC1 (centres undefined) | 0.594 µM
46 | O=S(=O)(c1ccc(F)cc1)N1CCCC1c1ccnc(Nc2cnccn2)n1 (centres undefined) | > 50 µM (inactive)
47 | COc1cccc(/C=C/C(=O)Nc2ccc(C)c(Cl)c2)c1 | 5.79 µM
48 | Clc1cc2nc(N3CCN(c4ccccn4)CC3)c3nncn3c2cc1Cl | 2.3 µM
49 | Cc1cccc(C(=O)NCc2nc3ccccc3n2Cc2ccccc2C)c1 | > 50 µM (inactive)
50 | CC1Oc2ccccc2C(=O)N(Cc2ccc([N+](=O)[O-])cc2)C1=O (centres undefined) | 12.5 µM
51 | COc1cccc(NC(=O)Nc2ccc(CCc3nc4ccccc4[nH]3)cc2)c1 | 6.28 µM
52 | O=C(Nc1ccccc1)c1nc2c(s1)CCN(C(=O)c1ccccc1)CC2 | > 50 µM (inactive)

Row | SMILES | IC50
53 | O=c1ccc(-c2noc(Cc3c(F)cccc3Cl)n2)c[nH]1 | 0.516 µM
54 | O=C(Nc1ccc2c(c1)OCCO2)c1ccc(N2CCCCC2)nn1 | 31.6 µM
55 | O=C(Nc1nnc2n1CCCS2)c1cc2ccccc2o1 | 4.43 µM
56 | Cc1cccc(C(=O)OCC(=O)Nc2ccc3[nH]c(=O)[nH]c3c2)c1C | 4.94 µM
57 | CN(C(=O)c1cccc2cccnc12)c1nc2c(s1)CCc1occc1-2 | 26.9 µM
58 | N#Cc1ccc(-c2ccc(OCC(=O)Nc3ccc4c(c3)OCO4)cc2)cc1 | 11.5 µM
59 | COc1ccccc1NC(=O)Nc1ccc(NC(=O)c2ccccc2O)cc1 | 37.4 µM
60 | O=C(COC(=O)Cn1cnc2ccccc21)Nc1ccc2c(c1)OCCO2 | 29.3 µM
61 | COc1ccc(-c2cc3c(=O)n(CC(=O)Nc4ccccc4F)ccn3n2)cc1OC | 33 µM
62 | Cc1ccc2oc(=O)c(S(=O)(=O)N3CCCCC3)cc2c1 | 23.2 µM
63 | O=C(Nc1ccc2c(c1)N(C(=O)C1CCCC1)CC2)c1c(F)cccc1F | 0.15 µM
64 | CC(=O)N1CCc2cc(S(=O)(=O)NCc3ccc(C)cc3)ccc21 | > 50 µM (inactive)
65 | O=C(COc1ccccc1-c1nnc(-c2ccccc2)o1)Nc1ccc(F)cc1F | 3.36 µM
66 | O=C(CSc1nc2cc(S(=O)(=O)Nc3ccccc3Cl)ccc2o1)Nc1ccc(N2CCOCC2)cc1 | 34.5 µM
67 | CN1CCC(N(C)S(=O)(=O)c2ccc(NC(=O)c3cccc(OCc4ccccc4)c3)cc2)CC1 | 17.2 µM
68 | COCCCNC(=O)c1ccc(Cn2c(=O)c3ccccc3n(CC(=O)NC3CCCCC3)c2=O)cc1 | 23.5 µM
69 | CC(=O)C1=C(O)[C@]2(O)C(=O)c3c(c(C)c4ccc(C)c(O)c4c3O)C[C@H]2[C@@H](N)C1=O | 1.49 µM
70 | CC(C)CCN1C(=O)C2C(C(=O)Nc3ccc(Oc4ccccc4)cc3)C3C=CC2(O3)C1C(=O)NC1CCCCC1 (centres undefined) | 37.5 µM
71 | CCn1c(COc2cccc(C(F)(F)F)c2)nnc1SCc1ccc(Cl)cc1 | 9.88 µM
72 | O=C(Cn1c(=O)c2sccc2n(Cc2ccc([N+](=O)[O-])cc2)c1=O)NCCc1ccccc1 | 19.5 µM
73 | CC(C)NS(=O)(=O)c1ccc(OCC(=O)N2CCC(Cc3ccccc3)CC2)cc1 | 5.5 µM
74 | Cc1ccc(C)c(Nc2cc(C)nc3nc(-c4ccco4)nn23)c1 | > 50 µM (inactive)
75 | CN(C)S(=O)(=O)c1ccc(N2CCCC2)c(C(=O)Nc2ccc(-c3cn4ccsc4n3)cc2)c1 | > 50 µM (inactive)
76 | O=C(NCc1ccncc1)C1CCN(c2cncnc2N2CCCCC2)CC1 | 1.82 µM
77 | CC1=C(c2ccc(F)cc2)S(=O)(=O)NC1=NCC(=O)Nc1ccc(F)cc1F | 41.1 µM
78 | O=C(CC1C(=O)N(Cc2cccnc2)c2nc3ccccc3n21)Nc1cccc2ccccc12 (centres undefined) | > 50 µM (inactive)

Row | SMILES | IC50
79 | COc1cccc(C(=O)Nc2ccc(-n3cnnn3)cc2)c1 | 21.7 µM
80 | O=C(NCc1ccc(F)cc1)N1CCC2(C1)Nc1cccnc1NC2=NCc1ccccc1 (centres undefined) | > 50 µM (inactive)
81 | COc1ccc(NC(=O)c2ccnc(Nc3ccc(OC)cc3)c2)cc1 | 39.7 µM
82 | O=C(NCc1ccc(F)cc1)C1CCN(c2cnc(N3CCCCC3)nc2)CC1 | 0.695 µM
83 | N#Cc1ccc(Cc2ncc(C(F)(F)F)cc2Cl)s1 | 8.21 µM
84 | CCOC(=O)c1cc2c(ccn2C)n1CC(=O)N1CCc2ccccc2C1 | > 50 µM (inactive)
85 | CCCc1nc2sc3c(NCCN4CCOCC4)ncnc3c2c2c1CCC2 | 0.592 µM
86 | c1ccc(CCN2CCc3nc4cccnc4cc3C2)nc1 | > 50 µM (inactive)
87 | Cc1cc(C(=O)CSc2nc3ccccc3[nH]2)c(C)n1Cc1ccco1 | 36.2 µM
88 | Cc1ccccc1NC(=O)CNc1nc(Nc2ccccc2)nc(Nc2ccccc2)n1 | 19.1 µM
89 | O=S(=O)(c1ccccc1)N1CCN2Cc3ccccc3N(Cc3ccccc3)CC2C1 (centres undefined) | > 50 µM (inactive)
90 | COc1ccc(/C=C/C(=O)Nc2cccc(S(=O)(=O)Nc3ccccc3Cl)c2)c(OC)c1 | 21.4 µM
91 | O=C(Cn1ccc2ccc(N3CCOCC3)nc21)NCc1ccccc1F | > 50 µM (inactive)
92 | Cc1ccc(S(=O)(=O)N(C)C)cc1NC(=O)Cc1ccc(Cl)c(Cl)c1 | 0.274 µM
93 | O=C(CCC1CCCCC1)Nc1ccccc1C(=O)N1CCOCC1 | > 50 µM (inactive)
94 | COc1cccc(/C=C/C(=O)Nc2ccc(N3CCOCC3)cc2)c1OC | 2.32 µM
95 | COc1ccc(NC(=O)Cn2c(CSc3ccc(C)cc3)nc3ccccc32)cc1 | 20.8 µM
96 | O=C(c1ccnn1-c1ccc2ccc(-c3ccncc3)cn12)N1CCCC1 | > 50 µM (inactive)
97 | COc1cc(C(=O)NC(Cc2ccccc2)c2nc3ccccc3[nH]2)cc(OC)c1OC (centres undefined) | 3.77 µM
98 | CC1=C(Cn2c3cccc(=O)c-3nc3ccccc32)CCC(C)(C)C1 | 2.02 µM
99 | CNC(=O)c1c2n(c3ncccc13)CCN(S(=O)(=O)c1ccc(-c3ccccc3)cc1)C2 | 10.2 µM
100 | CC(C)NC(=O)CN1C(=O)CC(C)Sc2ccc(S(=O)(=O)N3CCCCC3)cc21 (centres undefined) | 41.6 µM
101 | O=C(COC(=O)C1CCCN1C(=O)C12CC3CC(CC(C3)C1)C2)c1ccc(Cl)cc1 (centres undefined) | > 50 µM (inactive)
102 | CCOC(=O)c1ccc(NC(=O)c2cnc(N3CCOCC3)nc2)cc1 | > 50 µM (inactive)
103 | CCCN1C=NS(=O)(=O)c2cc(C(=O)Nc3ccc(OC)c(Cl)c3)ccc21 | 35.2 µM
104 | CC(=O)c1ccccc1NC(=O)COc1ccc(-c2ccc(C#N)cc2)cc1 | 4.72 µM
